# Measurements taken from ChEMBL document CHEMBL1201862, “PubChem BioAssay data set” (2004).
# The source made the active and inactive calls.
# Key:
# [1] = target: T1, Neuropeptides B/W receptor type 1 (Homo sapiens, UniProt P48145); experiment: GPR7 antagonist potency, late-stage follow-up, cell-based, fluorescence, dose response, set 5 (AID 588566); assay type: functional
# T1 sequence (P48145 whole entry): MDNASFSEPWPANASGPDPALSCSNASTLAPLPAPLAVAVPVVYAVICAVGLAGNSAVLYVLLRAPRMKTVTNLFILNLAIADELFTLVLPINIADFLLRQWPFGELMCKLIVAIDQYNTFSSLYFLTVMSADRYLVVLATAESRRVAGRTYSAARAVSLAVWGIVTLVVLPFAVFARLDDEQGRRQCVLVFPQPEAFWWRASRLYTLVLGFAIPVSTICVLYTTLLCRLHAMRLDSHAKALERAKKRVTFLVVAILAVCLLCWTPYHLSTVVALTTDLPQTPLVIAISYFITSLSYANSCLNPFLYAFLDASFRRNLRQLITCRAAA
# [2] = target: Melanin-concentrating hormone receptor 1 (Homo sapiens, UniProt Q99705); experiment: Late-stage fluorescence-based counterscreen for antagonists of the G-protein coupled receptor 7 (GPR7): cell-based dose response assay to identify antagonists of the melanin-concentrating hormone receptor 1 (MCHR1) Set 5.; assay type: functional
# [3] = system: Jurkat; experiment: SAR Analysis of small molecule inhibitors of […] specific antigen receptor-induced NF-kB activation in a Jurkat cell line using a luminescence assay - Set 3. [Related pubchem assays (depositor defined):AID435022, AID435025, AID465]; assay type: functional, cell-based; details: Homo sapiens
# [4] = system: HEK293; experiment: SAR Analysis of small molecule inhibitors of B-cell specific antigen receptor-induced NF-kB activation in a HEK-293T cell line using a luminescence assay - Set 2. [Related pubchem assays (depositor defined):AID435022, AID435025, AID489021]; assay type: functional, cell-based; details: Homo sapiens
# [5] = system: HEK293; experiment: cytotoxicity in HEK293T NF-kB-Luc cells, SAR follow-up, cytotoxicity control for NF-kB activator project, cell-based, resazurin fluorescence (AID 493251); assay type: functional; details: Homo sapiens
# [6] = target: Beta-galactosidase (Escherichia coli, UniProt Q8VNN2); experiment: beta-galactosidase enzyme inhibitors and activators, dose response, artefact control for CCR6 antagonist project, biochemical, E. coli enzyme, set 3 (AID 504712); assay type: functional
# [7] = target: Apelin receptor (Homo sapiens, UniProt P35414); experiment: APJ beta-arrestin recruitment antagonism, SAR follow-up, selectivity assay for CCR6 antagonist project, cell-based, luminescent, enzyme-fragment complementation (AID 588359); assay type: functional
# [8] = THP-1 cell cytotoxicity, dose response, cytotoxicity control for non-replicating M. tuberculosis project (AID 489025); assay type: functional
# [9] = cells; assay type: functional
# [10] = system: HEK293; experiment: inhibitors of LMP1-driven NF-kB reporter, dose response, cell-based, HEK293, luciferase, cherry-pick (AID 588343); assay type: functional; details: Homo sapiens
# [11] = target: Latent membrane protein 1 (Human herpesvirus 4 (strain B95-8), UniProt P03230); experiment: TES1-eGFP NF-kB reporter inhibition versus Tet-On dsRED, dose response, selectivity assay for LMP1 NF-kB inhibitor project, imaging, HEK293T, dual-color eGFP/dsRED, cherry-picks (AID 588398); assay type: functional, cell-based
# [12] = target: T2, Polyadenylate-binding protein 1 (Homo sapiens, UniProt P11940); experiment: PABP1 MLLE–PAM2 interaction inhibitors, dose response, miRNA deadenylation inhibitor project, biochemical, fluorescence polarization, Cy5-PAM2 peptide, secondary (AID 602260); assay type: functional; details: read-out: IC50_Mean
# [13] = target: T2, Polyadenylate-binding protein 1; experiment: PABP1 MLLE–PAM2 binding inhibitor potency, dose response, biochemical, fluorescence polarization, FITC-PAM2 peptide (AID 602259); assay type: functional; details: read-out: IC50_Mean
# [14] = target: T3, Short transient receptor potential channel 4 (Mus musculus, UniProt Q9QUQ5); experiment: mouse TRPC4 channel inhibitors, dose response, cell-based, HEK293 TRPC4/mu-opioid, Fluo-4 calcium (AID 434942); assay type: functional;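 further: potency of inhibitors blocking the TRPC4 calcium response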
# T3 sequence (Q9QUQ5 whole entry): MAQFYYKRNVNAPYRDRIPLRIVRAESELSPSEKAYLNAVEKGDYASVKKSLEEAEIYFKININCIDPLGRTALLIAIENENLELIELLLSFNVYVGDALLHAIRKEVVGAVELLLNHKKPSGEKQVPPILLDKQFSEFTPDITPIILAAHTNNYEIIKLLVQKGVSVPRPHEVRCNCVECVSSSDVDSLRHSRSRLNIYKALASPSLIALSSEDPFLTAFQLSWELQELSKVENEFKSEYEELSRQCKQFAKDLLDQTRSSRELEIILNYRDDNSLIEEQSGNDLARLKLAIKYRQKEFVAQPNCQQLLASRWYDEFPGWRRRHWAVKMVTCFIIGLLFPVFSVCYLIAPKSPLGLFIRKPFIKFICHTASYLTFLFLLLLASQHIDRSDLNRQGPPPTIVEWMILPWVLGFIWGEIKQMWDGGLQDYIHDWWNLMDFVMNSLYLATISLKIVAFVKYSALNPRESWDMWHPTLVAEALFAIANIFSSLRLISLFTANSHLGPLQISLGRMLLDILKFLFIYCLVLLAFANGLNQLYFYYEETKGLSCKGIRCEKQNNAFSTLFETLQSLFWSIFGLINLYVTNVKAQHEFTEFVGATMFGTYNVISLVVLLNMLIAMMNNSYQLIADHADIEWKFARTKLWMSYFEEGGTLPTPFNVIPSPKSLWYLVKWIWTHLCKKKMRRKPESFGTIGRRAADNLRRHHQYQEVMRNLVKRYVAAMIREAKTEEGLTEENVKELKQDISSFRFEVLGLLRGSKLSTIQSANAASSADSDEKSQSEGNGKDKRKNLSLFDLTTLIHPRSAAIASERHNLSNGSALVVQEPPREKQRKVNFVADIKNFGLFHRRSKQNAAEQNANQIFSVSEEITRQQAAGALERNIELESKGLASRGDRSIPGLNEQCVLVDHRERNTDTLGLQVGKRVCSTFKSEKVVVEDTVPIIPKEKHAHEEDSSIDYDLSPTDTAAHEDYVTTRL
# [15] = target: T3, Short transient receptor potential channel 4; experiment: SAR Analysis for the identification of selective inhibits of the transient receptor potential cation channel C4 (TRPC4): Automated Electrophysiology. [Related pubchem assays (depositor defined):AID2256]; assay type: functional
# [16] = Luminescence Cell-Based Dose Retest to Confirm Inhibitors of Cancer Stem Cells. [Related pubchem assays (depositor defined):AID2717, AID2721]; assay type: functional; details: Homo sapiens
# [17] = cytotoxicity in HMLE control line with eGFP shRNA, dose response, counter-screen for HMLE_sh_ECad selective toxicity project, cell-based, HMLE_sh_eGFP, luminescence (AID 463074); assay type: functional, Homo sapiens;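 further: HMLE human mammary epithelial cells expressing control shRNA against eGFP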
# [18] = system: BJ; experiment: cytotoxicity toward BJ-TERT fibroblasts, dose response, cell-based, RAS-independent, luminescence (AID 1933); assay type: functional; details: Homo sapiens
# [19] = cells; assay type: functional, cell-based
# [20] = system: BJ; experiment: cells; assay type: functional, cell-based; details: Homo sapiens
# [21] = cells; assay type: functional, cell-based; remark: listed apart in the source
# [22] = system: BJ; experiment: cytotoxicity toward BJ-TERT-LT-ST fibroblasts, dose response, cell-based, RAS-independent, luminescence (AID 1935); assay type: functional; details: Homo sapiens;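 further: BJ fibroblasts immortalized with TERT plus LT and ST oncogenes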
# [23] = cytotoxicity toward DRD oncogenic fibroblasts, dose response, cell-based, non-viral oncogenic, luminescence (AID 1934); assay type: functional; details: Homo sapiens
# [24] = target: Heat shock protein HSP 90-alpha (Homo sapiens, UniProt P07900); assay type: functional, organism-based
# [25] = system: Jurkat; experiment: SAR Analysis of small molecule inhibitors of T-cell specific antigen receptor-induced NF-kB activation in a Jurkat cell line using a luminescence assay - Set 2. [Related pubchem assays (depositor defined):AID435003, AID435012, AID465]; assay type: functional, cell-based; details: Homo sapiens
# [26] = system: BJ; experiment: cytotoxicity toward Ras-transformed BJeLR fibroblasts, dose response, cell-based, alamar blue fluorescence, cherrypicked samples (AID 2631); assay type: functional; details: Homo sapiens;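 further: confirmatory dose-response assay in RAS-dependent BJ fibroblasts engineered with TERT, LT and ST, with cytotoxicity read by fluorescence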
# [27] = system: HEK293; experiment: SAR Analysis of small molecule inhibitors of T-cell specific antigen receptor-induced NF-kB activation in a HEK-293T cell line using a luminescence assay - Set 2. [Related pubchem assays (depositor defined):AID435003, AID435012, AID489026]; assay type: functional, cell-based; details: Homo sapiens
# [28] = Shn3 3'UTR reporter inhibitors, dose response, cell-based, Clone20 osteoblasts, firefly luciferase, cherry-picked (AID 624132); assay type: functional;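 further: firefly luciferase luminescence from reporter carrying the Shn3 3'UTR in osteoblasts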
# [29] = HepG2 cell cytotoxicity, dose response, cytotoxicity control for Shn3 inhibitor project, CellTiter-Glo, cherry-picked (AID 624134); assay type: functional, cell-based
# [30] = control 3'UTR Renilla luciferase suppression, dose response, counter-screen for Shn3 inhibitor project, cell-based, Clone20-Shn3RL, cherry-picked (AID 624133); assay type: functional
# [31] = NIH-3T3 fibroblast cytotoxicity, dose response, cytotoxicity control, cell-based, fluorescence, Alamar Blue, secondary assay (AID 2327); assay type: functional;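 further: NIH-3T3 mouse fibroblasts cultured with fluconazole at 8 µg/mL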
# [32] = target: T4, Heat shock factor protein 1 (Mus musculus, UniProt P38532); experiment: inhibition of MG132-induced HSE-luciferase signal, confirmation, cell-based, NIH3T3, luminescence, dose retest (AID 2382); assay type: functional;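 further: NIH3T3 fibroblasts with HSF1-driven luciferase reporter stressed by proteasome inhibitor MG132; luminescence from HSF1-driven luciferase expression after 8 hours of MG132 stress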
# T4 sequence (P38532 whole entry): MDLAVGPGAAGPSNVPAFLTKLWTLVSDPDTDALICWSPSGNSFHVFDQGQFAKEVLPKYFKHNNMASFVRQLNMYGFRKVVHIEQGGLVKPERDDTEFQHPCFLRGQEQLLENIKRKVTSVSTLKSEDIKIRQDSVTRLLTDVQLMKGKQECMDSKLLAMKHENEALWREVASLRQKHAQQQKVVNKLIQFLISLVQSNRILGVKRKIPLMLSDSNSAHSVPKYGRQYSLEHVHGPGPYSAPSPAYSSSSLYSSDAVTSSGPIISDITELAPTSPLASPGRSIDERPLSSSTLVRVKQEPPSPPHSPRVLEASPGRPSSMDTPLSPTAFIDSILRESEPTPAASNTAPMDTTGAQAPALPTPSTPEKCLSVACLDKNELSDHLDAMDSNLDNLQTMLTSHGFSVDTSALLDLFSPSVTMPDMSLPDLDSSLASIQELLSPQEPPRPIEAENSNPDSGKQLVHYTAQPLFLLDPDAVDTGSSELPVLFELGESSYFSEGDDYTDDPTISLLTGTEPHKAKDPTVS
# [33] = C. albicans growth with fluconazole, confirmation, fluorescence, retest (AID 2467); assay type: functional, cell-based
# T2 sequence (P11940 whole entry): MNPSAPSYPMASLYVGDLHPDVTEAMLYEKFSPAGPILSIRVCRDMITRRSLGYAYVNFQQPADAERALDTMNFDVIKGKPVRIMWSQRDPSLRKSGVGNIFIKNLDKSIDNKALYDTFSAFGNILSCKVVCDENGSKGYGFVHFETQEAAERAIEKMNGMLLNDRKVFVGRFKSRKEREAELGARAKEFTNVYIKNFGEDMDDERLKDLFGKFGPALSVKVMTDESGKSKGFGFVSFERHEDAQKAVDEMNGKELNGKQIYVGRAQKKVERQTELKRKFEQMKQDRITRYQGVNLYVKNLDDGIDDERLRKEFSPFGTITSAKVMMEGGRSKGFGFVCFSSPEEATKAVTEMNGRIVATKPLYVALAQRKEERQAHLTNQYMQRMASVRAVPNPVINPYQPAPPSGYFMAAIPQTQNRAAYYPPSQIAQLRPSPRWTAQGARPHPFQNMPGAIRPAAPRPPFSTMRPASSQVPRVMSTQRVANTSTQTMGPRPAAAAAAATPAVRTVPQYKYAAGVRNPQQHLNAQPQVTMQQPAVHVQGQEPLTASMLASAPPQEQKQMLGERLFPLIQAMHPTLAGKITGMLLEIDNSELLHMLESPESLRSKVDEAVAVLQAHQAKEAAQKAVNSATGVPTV
# Latent membrane protein 1, sequence (P03230 whole entry): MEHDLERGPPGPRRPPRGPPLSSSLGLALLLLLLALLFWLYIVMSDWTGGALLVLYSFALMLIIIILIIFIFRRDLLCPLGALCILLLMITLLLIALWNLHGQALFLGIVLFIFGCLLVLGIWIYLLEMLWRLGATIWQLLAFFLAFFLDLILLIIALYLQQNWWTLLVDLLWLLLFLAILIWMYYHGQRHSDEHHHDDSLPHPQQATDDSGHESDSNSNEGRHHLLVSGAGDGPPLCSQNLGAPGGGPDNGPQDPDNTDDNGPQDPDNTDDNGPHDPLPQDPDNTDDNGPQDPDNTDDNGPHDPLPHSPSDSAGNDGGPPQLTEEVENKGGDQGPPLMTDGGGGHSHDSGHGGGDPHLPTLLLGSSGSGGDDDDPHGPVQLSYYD
# Melanin-concentrating hormone receptor 1, sequence (Q99705 whole entry): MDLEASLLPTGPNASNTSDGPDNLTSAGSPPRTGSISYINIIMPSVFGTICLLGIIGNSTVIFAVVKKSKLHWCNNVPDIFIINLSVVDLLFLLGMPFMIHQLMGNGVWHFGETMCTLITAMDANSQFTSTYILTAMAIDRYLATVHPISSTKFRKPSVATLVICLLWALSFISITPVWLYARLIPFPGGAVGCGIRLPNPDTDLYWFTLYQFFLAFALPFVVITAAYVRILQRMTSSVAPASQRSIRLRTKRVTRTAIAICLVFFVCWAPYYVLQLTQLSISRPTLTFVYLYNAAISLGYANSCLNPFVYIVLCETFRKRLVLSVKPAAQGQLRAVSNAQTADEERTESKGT
# Beta-galactosidase, sequence (Q8VNN2 whole entry, the tested form may be a part): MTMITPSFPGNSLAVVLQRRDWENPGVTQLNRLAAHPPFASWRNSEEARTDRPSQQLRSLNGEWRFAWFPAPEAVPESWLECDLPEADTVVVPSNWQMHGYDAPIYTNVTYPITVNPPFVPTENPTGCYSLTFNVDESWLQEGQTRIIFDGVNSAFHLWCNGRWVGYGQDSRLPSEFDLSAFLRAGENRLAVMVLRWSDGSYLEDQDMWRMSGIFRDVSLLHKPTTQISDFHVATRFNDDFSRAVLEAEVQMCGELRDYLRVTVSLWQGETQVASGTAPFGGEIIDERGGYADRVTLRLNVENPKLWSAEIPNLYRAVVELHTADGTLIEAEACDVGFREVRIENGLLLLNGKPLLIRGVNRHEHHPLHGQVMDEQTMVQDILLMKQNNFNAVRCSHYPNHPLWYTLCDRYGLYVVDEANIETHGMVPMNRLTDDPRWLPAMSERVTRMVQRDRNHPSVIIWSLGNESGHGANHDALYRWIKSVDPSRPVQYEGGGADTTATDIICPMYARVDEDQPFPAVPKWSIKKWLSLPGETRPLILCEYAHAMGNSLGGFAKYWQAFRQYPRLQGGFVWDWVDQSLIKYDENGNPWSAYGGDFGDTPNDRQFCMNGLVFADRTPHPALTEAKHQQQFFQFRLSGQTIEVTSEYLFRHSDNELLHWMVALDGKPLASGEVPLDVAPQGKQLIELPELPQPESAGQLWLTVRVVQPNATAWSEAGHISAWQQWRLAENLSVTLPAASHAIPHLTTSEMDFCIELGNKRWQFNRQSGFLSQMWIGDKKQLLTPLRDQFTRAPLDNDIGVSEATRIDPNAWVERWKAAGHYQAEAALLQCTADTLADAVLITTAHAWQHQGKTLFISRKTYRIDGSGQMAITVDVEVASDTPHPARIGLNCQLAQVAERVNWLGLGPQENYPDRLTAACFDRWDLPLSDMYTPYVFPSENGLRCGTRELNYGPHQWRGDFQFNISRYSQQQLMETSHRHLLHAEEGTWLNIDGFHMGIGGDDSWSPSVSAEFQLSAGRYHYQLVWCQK
# Apelin receptor, sequence (P35414 whole entry, the tested form may be a part): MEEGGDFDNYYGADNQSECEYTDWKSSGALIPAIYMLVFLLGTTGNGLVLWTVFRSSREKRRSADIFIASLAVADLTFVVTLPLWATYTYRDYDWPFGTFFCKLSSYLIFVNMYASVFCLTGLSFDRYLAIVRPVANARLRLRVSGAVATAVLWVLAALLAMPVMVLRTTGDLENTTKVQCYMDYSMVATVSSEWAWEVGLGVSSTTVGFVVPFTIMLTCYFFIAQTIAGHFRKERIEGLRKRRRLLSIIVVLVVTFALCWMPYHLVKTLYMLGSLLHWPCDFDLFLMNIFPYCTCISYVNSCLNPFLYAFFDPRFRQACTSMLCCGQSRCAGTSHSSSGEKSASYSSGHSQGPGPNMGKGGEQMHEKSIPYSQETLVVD
smiles,measurement,setting,value
CCOc1ccc(Oc2c(N3CCCC3)c(Br)nn(Cc3cccc4ccccc34)c2=O)cc1,IC50,[1],> 20 µM (inactive)
same,IC50,[2],> 20 µM (inactive)
Cc1ccc(C(C#N)c2c(Cl)cnn(Cc3cccc4ccccc34)c2=O)cc1 (stereo unspecified),IC50,[1],0.381 µM (active)
same,IC50,[2],1.24 µM (active)
CCCNC(=O)CSCc1nc(-c2ccc(OCC)cc2)oc1C,IC50,[3],> 80 µM (inactive)
same,IC50,[4],74.7 µM (inactive)
same,IC50,[5],> 80 µM (inactive)
O=C(NNC(=O)c1cc(-c2ccccc2)nn1-c1ccccc1)c1ccccc1,IC50,[6],> 66.6 µM (inactive)
same,IC50,[7],14.8 µM (active)
CN1C(=O)N(C)c2ccc(C=O)c3cccc1c23,CC50,[8],24.6 µM (active)
same,IC50,[9],31.1 µM (active)
same,AC50,[10],6.36 µM (active)
same,AC50,[11],0.774 µM (active)
same,IC50,[12],37.9 µM (inactive)
same,IC50,[13],58.8 µM (inactive)
O=C(Cc1ccccc1)Nc1ccccc1Sc1ccccc1,EC50,[14],1.88 µM (active)
same,IC50,[15],38.7 µM (active)
O=C1Nc2cc(C(=O)N3CCc4ccccc4C3)ccc2S/C1=C\c1ccccc1,AC50,[16],3.43 µM (active)
same,AC50,[17],55.5 µM (active)
CCOC(=O)c1c(-n2cccc2)sc2c1CCCC2=O,AC50,[10],12.3 µM (active)
same,AC50,[11],4.1 µM (active)
CCCCC(=O)NC(c1ccc(C(C)C)cc1)c1ccc2cccnc2c1O (stereo unspecified),EC50,[18],0.534 µM (active)
same,EC50,[19],2.94 µM (active)
same,EC50,[20],2.67 µM (active)
same,EC50,[21],> 350 µM (not active)
same,EC50,[22],1.5 µM (inconclusive)
same,EC50,[23],4.19 µM (active)
same,AC50,[24],5.41 µM (active)
same,IC50,[5],20.2 µM (inactive)
same,IC50,[25],3.17 µM (active)
same,EC50,[26],2.13 µM (active)
same,IC50,[27],6.67 µM (active)
same,AC50,[28],0.57 µM (active)
same,AC50,[29],> 70 µM (inactive)
same,AC50,[30],0.331 µM (active)
COc1ccc(C(=O)Nc2ccc(NC(=O)c3cc4ccccc4o3)cc2)cc1[N+](=O)[O-],IC50,[5],> 80 µM (inactive)
same,IC50,[25],76.7 µM (inactive)
same,IC50,[27],> 80 µM (inactive)
COc1ccc(OC2C(=O)N(Cc3ccc4c(c3)OCO4)C2c2sccc2C)cc1 (stereo unspecified),EC50,[31],> 160 µM (inactive)
same,EC50,[32],> 195 µM (not active)
same,EC50,[33],> 38 µM (not active)
same,AC50,[16],29.8 µM (active)
same,AC50,[17],40.4 µM (active)
CCOc1ccc(-c2nc(CSCC(=O)NCCc3ccc(Cl)cc3)c(C)o2)cc1,IC50,[3],63.8 µM (inactive)
same,IC50,[4],> 80 µM (inactive)
same,IC50,[5],> 80 µM (inactive)
